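Cells were grown in 96-well plates and exposed to each compound for 48 hours at five concentrations; endpoints were interpolated linearly between bracketing concentrations, or set to the highest concentration if not reached. At the GI50, growth is halved.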 Active and inactive are the calls of the source. Rule as the data show it: active = GI50 up to about 1.1 µM and inactive = higher.
How the values were obtained:
Assay in all cases: DTP human tumour cell line panel, 48 h
786-0 = system: 786-0
ACHN = system: ACHN
COLO 205 = system: COLO 205
HCT-15 = system: HCT-15
HL-60 = system: HL-60
HOP-92 = system: HOP-92
HT-29 = system: HT-29
Hs-578T = system: Hs-578T
K562 = system: K562
LOX IMVI = system: LOX IMVI
M14 = system: M14
MDA-N = system: MDA-N
NCI-H226 = system: NCI-H226
NCI-H460 = system: NCI-H460
OVCAR-4 = system: OVCAR-4
OVCAR-8 = system: OVCAR-8
SF-268 = system: SF-268
SN12C = system: SN12C
SW-620 = system: SW-620
UACC-257 = system: UACC-257

Row | SMILES | GI50 (786-0) | GI50 (ACHN) | GI50 (COLO 205) | GI50 (HCT-15) | GI50 (HL-60) | GI50 (HOP-92) | GI50 (HT-29) | GI50 (Hs-578T) | GI50 (K562) | GI50 (LOX IMVI) | GI50 (M14) | GI50 (MDA-N) | GI50 (NCI-H226) | GI50 (NCI-H460) | GI50 (OVCAR-4) | GI50 (OVCAR-8) | GI50 (SF-268) | GI50 (SN12C) | GI50 (SW-620) | GI50 (UACC-257)
1 | CC(=O)O[C@H]1CC[C@H]2[C@@H]3CCC4C(C)=NNC(=O)C4[C@H]3CC[C@]12C (stereo not given in full) | 40.3 µM (inactive) | 57.5 µM (inactive) | > 100 µM (inactive) | > 100 µM | > 100 µM (inactive) | 37.9 µM (inactive) | > 100 µM (inactive) | 17.8 µM (inactive) | > 100 µM (inactive) | > 38.6 µM (inactive) | > 100 µM (inactive) | > 100 µM (inactive) | 39.5 µM (inactive) | > 100 µM (inactive) | > 100 µM (inactive) | 38 µM (inactive) | 34 µM (inactive) | 95.5 µM (inactive) | > 100 µM (inactive) | > 100 µM (inactive)
2 | O=C1C2CCN(CC2)C1CN1CCOCC1 (stereo not given) | 1.93 µM (inactive) | 2.01 µM (inactive) | 1.79 µM (inactive) | 2.18 µM | 2.74 µM (inactive) | 1.9 µM (inactive) | 7.73 µM (inactive) | 29 µM (inactive) | 6.73 µM (inactive) | 5.16 µM (inactive) | 2.96 µM (inactive) | 5.75 µM (inactive) | 13.6 µM (inactive) | 17.7 µM (inactive) | 4.04 µM (inactive) | 5.02 µM (inactive) | 13.7 µM (inactive) | 4.05 µM (inactive) | 1.72 µM (inactive) | 4.33 µM (inactive)
3 | C/C(=N\Nc1nc2cc(C(F)(F)F)ccc2s1)c1ccccn1 | 0.34 µM (active) | 0.113 µM (active) | 0.0442 µM (active) | 0.0993 µM | 0.127 µM (active) | 0.593 µM (active) | 0.0422 µM (active) | 1.91 µM (inactive) | 0.266 µM (active) | 0.287 µM (active) | 0.282 µM (active) | 1.06 µM (active) | 0.124 µM (active) | 0.452 µM (active) | 0.321 µM (active) | 0.0621 µM (active) | 0.333 µM (active) | 0.23 µM (active) | 0.102 µM (active) | 0.452 µM (active)
4 | CCCCC(=C=C(C)CO)C1CCCN1C(=O)OC(C)(C)C (stereo not given) | 16.4 µM (inactive) | 24.8 µM (inactive) | 15.4 µM (inactive) | 17.9 µM | 13.4 µM (inactive) | 12.7 µM (inactive) | 17.5 µM (inactive) | 13.8 µM (inactive) | 17.9 µM (inactive) | 16.8 µM (inactive) | 18.5 µM (inactive) | 17.6 µM (inactive) | 16 µM (inactive) | 16.1 µM (inactive) | 17.3 µM (inactive) | 18.2 µM (inactive) | 17.5 µM (inactive) | 17.3 µM (inactive) | 29.2 µM (inactive) | 16 µM (inactive)
5 | CCC(/C=C/c1ccccc1)=N\NC(=S)N/N=C(/C=C/c1ccccc1)CC | 48 µM (inactive) | 34.2 µM (inactive) | 30.8 µM (inactive) | 26.5 µM | 19.6 µM (inactive) | 83.9 µM (inactive) | 55.1 µM (inactive) | > 100 µM (inactive) | 19.6 µM (inactive) | 21.3 µM (inactive) | 46.1 µM (inactive) | 58.1 µM (inactive) | 32.2 µM (inactive) | 13.2 µM (inactive) | 35.2 µM (inactive) | 20.4 µM (inactive) | 12.8 µM (inactive) | 36.6 µM (inactive) | > 100 µM (inactive) | 39.6 µM (inactive)
6 | O=C1NC2c3c(I)sc(I)c3/C(=N\O)C2O1 (stereo not given) | 24.4 µM (inactive) | 17 µM (inactive) | 20.8 µM (inactive) | 24.4 µM | 20 µM (inactive) | 19.2 µM (inactive) | 17.9 µM (inactive) | 11.5 µM (inactive) | 19.9 µM (inactive) | 29.4 µM (inactive) | 36.8 µM (inactive) | 33.6 µM (inactive) | 31 µM (inactive) | 31.5 µM (inactive) | 26.1 µM (inactive) | 18.4 µM (inactive) | 24.3 µM (inactive) | 30.8 µM (inactive) | 19 µM (inactive) | 58.3 µM (inactive)
7 | COc1c(C)c(C/C=C(\C)CCCCO[Si](c2ccccc2)(c2ccccc2)C(C)(C)C)c(OC)c(OC)c1OC | 22.7 µM (inactive) | 16.2 µM (inactive) | 20.6 µM (inactive) | > 46.5 µM | 47.3 µM (inactive) | > 31.6 µM (inactive) | > 46.5 µM (inactive) | > 100 µM (inactive) | 28.8 µM (inactive) | 15.5 µM (inactive) | > 46.5 µM (inactive) | > 46.5 µM (inactive) | > 100 µM (inactive) | 14.6 µM (inactive) | 28.1 µM (inactive) | 20.2 µM (inactive) | 65.5 µM (inactive) | 27.7 µM (inactive) | 45.6 µM (inactive) | > 46.5 µM (inactive)
